Calls of active or inactive are those of the source. The calls are words filed in the database; no cut-off is given here. A value given as a limit tells only on which side of the number the result lay.

Assay [1] deals with Mus musculus. As to the kind of experiment: Antiinflammatory activity in DBA/1 mouse model of collagen-induced arthritis assessed as CD4 and CD8- double positive cell expression in spleen lymphocytes at 10 mg/kg/day, po administered starting from day 30 and measured on day 63 by APC-conjugated anti-mouse CD4 and FITC-conjugated anti-mouse CD8 staining based flow cytometry relative to control. The class given is functional. To be noted: time 33 day.

For assay [2], the system named is RAW264.7. Description: Inhibition of LPS-induced nitric oxide production in mouse RAW264.7 cells at 10 uM measured after 24 hrs by Griess reagent based assay relative to control. The class given is functional.
The subject of assay [3] is RAW264.7. Description: Inhibition of LPS-induced nitric oxide production in mouse RAW264.7 cells measured after 24 hrs by Griess reagent based assay. To be noted: RAW264.7, 24 h. The format is functional, cell-based.
The subject of assay [4] is RAW264.7. Description: Cytotoxicity against mouse RAW264.7 cells assessed as reduction in cell viability measured after 24 hrs by MTT assay. The class given is cell-based. The following applies: RAW264.7, 24 h. In general terms: Tetrazolium dyes change colour on reduction, which living cells bring about.
Assay [5] concerns RAW264.7. Description: Inhibition of LPS-induced iNOS expression in mouse RAW264.7 cells measured after 24 hrs by Western blot analysis. The format is functional, cell-based.
Assay [6] has as its system Mus musculus. Description: Antiinflammatory activity in DBA/1 mouse model of collagen-induced arthritis assessed as reduction in arthritis score at 10 mg/kg/day, po administered starting from day 30. The format is functional, organism-based.
Assay [7] deals with Mus musculus. Description: Antiinflammatory activity in DBA/1 mouse model of collagen-induced arthritis assessed as reduction in paw redness at 10 mg/kg/day, po administered starting from day 30. The class given is functional, organism-based.
The test system of assay [8] is Mus musculus. As to the kind of experiment: Antiinflammatory activity in DBA/1 mouse model of collagen-induced arthritis assessed as appearance of intact joint structure at 10 mg/kg/day, po administered starting from day 30 and measured on day 63 by H and E/Safranin O staining based microscopic analysis. The following applies: time 33.0 day. The format is functional, organism-based.

In assay [9] the test system is Mus musculus. As to the kind of experiment: Antiinflammatory activity in DBA/1 mouse model of collagen-induced arthritis assessed as reduction in cartilage destruction at 10 mg/kg/day, po administered starting from day 30 and measured on day 63 by H and E/Safranin O staining based microscopic analysis. To be noted: time 33.0 day. The class given is functional, organism-based.

Assay [10] concerns Mus musculus. As to the kind of experiment: Antiinflammatory activity in DBA/1 mouse model of collagen-induced arthritis assessed as reduction in TNFalpha mRNA expression in joint tissue at 10 mg/kg/day, po administered starting from day 30 and measured on day 63 by RT-PCR analysis. To be noted: time 33.0 day. The class given is functional, organism-based.
Assay [11] deals with Mus musculus. Description: Antiinflammatory activity in DBA/1 mouse model of collagen-induced arthritis assessed as reduction in IL-1beta mRNA expression in joint tissue at 10 mg/kg/day, po administered starting from day 30 and measured on day 63 by RT-PCR analysis. The class given is functional, organism-based. To be noted: time 33.0 day.
Assay [12] has as its system Mus musculus. Description: Antiinflammatory activity in DBA/1 mouse model of collagen-induced arthritis assessed as reduction in IL-6 mRNA expression in joint tissue at 10 mg/kg/day, po administered starting from day 30 and measured on day 63 by RT-PCR analysis. The class given is functional, organism-based. To be noted: time 33.0 day.
Assay [13] concerns Mus musculus. Description: Antiinflammatory activity in DBA/1 mouse model of collagen-induced arthritis assessed as CD8-positive cell expression in spleen lymphocytes at 10 mg/kg/day, po administered starting from day 30 and measured on day 63 by APC-conjugated anti-mouse CD4 and FITC-conjugated anti-mouse CD8 staining based flow cytometry relative to control. The format is functional. To be noted: time 33 day. A general note: In flow cytometry, cells or beads pass a laser one at a time.

Assay [14] has as its system Mus musculus. As to the kind of experiment: Antiinflammatory activity in DBA/1 mouse model of collagen-induced arthritis assessed as CD4-positive cell expression in spleen lymphocytes at 10 mg/kg/day, po administered starting from day 30 and measured on day 63 by APC-conjugated anti-mouse CD4 and FITC-conjugated anti-mouse CD8 staining based flow cytometry relative to control. The class given is functional. The following applies: time 33 day.

In assay [15] the test system is Mus musculus. Description: Antiinflammatory activity in DBA/1 mouse model of collagen-induced arthritis assessed as CD8-positive cell expression in lymph node derived lymphocytes at 10 mg/kg/day, po administered starting from day 30 and measured on day 63 by APC-conjugated anti-mouse CD4 and FITC-conjugated anti-mouse CD8 staining based flow cytometry relative to control. The format is functional. The following applies: time 33 day.

The subject of assay [16] is Mus musculus. As to the kind of experiment: Antiinflammatory activity in DBA/1 mouse model of collagen-induced arthritis assessed as CD4 and CD8-double positive cell expression in lymph node derived lymphocytes at 10 mg/kg/day, po administered starting from day 30 and measured on day 63 by APC-conjugated anti-mouse CD4 and FITC-conjugated anti-mouse CD8 staining based flow cytometry relative to control. The following applies: time 33 day. The class given is functional.

The test system of assay [17] is Mus musculus. As to the kind of experiment: Antiinflammatory activity in DBA/1 mouse model of collagen-induced arthritis assessed as CD4-positive cell expression in lymph node derived lymphocytes at 10 mg/kg/day, po administered starting from day 30 and measured on day 63 by APC-conjugated anti-mouse CD4 and FITC-conjugated anti-mouse CD8 staining based flow cytometry relative to control. The format is functional. The following applies: time 33 day.

The test system of assay [18] is Rattus norvegicus. As to the kind of experiment: Antiinflammatory activity in Lewis rat model of adjuvant-induced arthritis assessed as reduction in disease symptom at 10 mg/kg/day, po administered starting from day 14. The class given is functional, organism-based.
Assay [19] relates to Rattus norvegicus. As to the kind of experiment: Antiinflammatory activity in Lewis rat model of adjuvant-induced arthritis assessed as reduction in arthritis score at 10 mg/kg/day, po administered starting from day 14. The format is functional, organism-based.
The test system of assay [20] is Rattus norvegicus. Description: Antiinflammatory activity in Lewis rat model of adjuvant-induced arthritis assessed as improvement in disease pathology at 10 mg/kg/day, po administered starting from day 14 and measured on day 28 by H and E/Safranin O staining based microscopic analysis. To be noted: time 14.0 day. The format is functional, organism-based.

By inhibition is commonly meant the drop in the measured response relative to a control, in per cent. In general, IC50 refers to the concentration that inhibits the measured activity by half. Take `COc1cc(O)c(C(=O)/C=C/c2ccc(OCCCN3CCOCC3)c(OC)c2)c(OC)c1`: the Activity came to 0.527% in the assay with Mus musculus [1]; 28.7% with Mus musculus [13]; 39.1% with Mus musculus [14]; 27.4% with Mus musculus [15]; 2.13% in the assay on Mus musculus [16]; 29.3% in the assay on Mus musculus [17]. The compound further had an inhibition at 10 µM in the assay on RAW264.7 [2] of 84%. For the same compound, the IC50 is 6.4 µM in the assay with RAW264.7 [3] and over 80 µM in the assay with RAW264.7 [4]. The inhibition result in the assay on RAW264.7 [5] is “Dose-dependent effect”. For the same compound, the outcome with Mus musculus [6], in the assay on Mus musculus [7], in the assay with Mus musculus [8], in the assay with Mus musculus [9], with Mus musculus [10] and in the assay with Mus musculus [11] was Active. Also, the result in the assay on Mus musculus [12], in the assay with Rattus norvegicus [18], in the assay with Rattus norvegicus [19] and in the assay with Rattus norvegicus [20] was Active.

The values above are taken from ChEMBL document CHEMBL4765281, “Development of a novel nitric oxide (NO) production inhibitor with potential therapeutic effect on chronic inflammation” (Eur J Med Chem, 2020).
